In patent US9249453B2, “Method for identifying a malodor inhibitor” (Kao Corporation, priority 2011, dated 2016):

Experiments:
OR8H1 [1] = target: T1, OR8H1 (Homo sapiens, UniProt Q8NGG4); experiment: Luciferase reporter assay: suppression of the skatole response of OR8H1 expressed in HEK293 cells; format: cell-based; conditions: 4 h; test substance 100 μM mixed with 300 μM skatole, HEK293 cells expressing OR8H1; read-out: Inhibition rate 8H1
T1 construct: expressed in transfected cells; host or cells: HEK293
T1 sequence (Q8NGG4 1-311): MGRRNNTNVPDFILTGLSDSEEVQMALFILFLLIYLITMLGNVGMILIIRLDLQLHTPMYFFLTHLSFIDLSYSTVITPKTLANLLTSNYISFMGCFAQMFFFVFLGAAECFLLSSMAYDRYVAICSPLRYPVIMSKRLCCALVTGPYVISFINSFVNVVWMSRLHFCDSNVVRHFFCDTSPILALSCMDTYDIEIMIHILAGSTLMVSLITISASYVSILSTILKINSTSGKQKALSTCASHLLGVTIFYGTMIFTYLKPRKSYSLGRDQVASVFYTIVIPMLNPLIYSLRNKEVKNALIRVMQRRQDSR

[2] = Sensory test by panelists: suppression of skatole odor; format: in vivo; conditions: Example 6: test substance diluted by 1% with propylene glycol, n=3, FIG. 5
Method: A cotton ball was put into a glass bottle (Hakuyo. […] The glass bottle was left to stand for one night at room temperature, to thereby sufficiently evaporate the odorant molecule. The sensory test was performed by four panelists. In the case where skatole alone was added to a glass bottle, the odor intensity was rated to 5. Then, the malodor intensity in the case where skatole and a test substance were added was evaluated with a rating of 0 to 10 (by 0.5) (i.e., 20 ratings) In order to investigate specificity of malodor suppressing effect of a test substance identified in Example 4, the sensory test was also performed with hexanoic acid, a malodorous compound but structurally differs from skatole. In the experiment, hexanoic acid diluted by 1% with propylene glycol was used as a malodorous compound, and methyl dihydrojasmonate diluted by 1% with propylene glycol was used as a test substance.

OR5K1 [3] = target: T2, OR5K1 (Homo sapiens, UniProt Q8NHB7); experiment: Luciferase reporter assay: suppression of the skatole response of OR5K1 expressed in HEK293 cells; format: cell-based; conditions: 4 h; test substance 100 μM mixed with 300 μM skatole, HEK293 cells expressing OR5K1; read-out: Inhibition rate 5K1
T2 construct: expressed in transfected cells; host or cells: HEK293
T2 sequence (Q8NHB7 1-308): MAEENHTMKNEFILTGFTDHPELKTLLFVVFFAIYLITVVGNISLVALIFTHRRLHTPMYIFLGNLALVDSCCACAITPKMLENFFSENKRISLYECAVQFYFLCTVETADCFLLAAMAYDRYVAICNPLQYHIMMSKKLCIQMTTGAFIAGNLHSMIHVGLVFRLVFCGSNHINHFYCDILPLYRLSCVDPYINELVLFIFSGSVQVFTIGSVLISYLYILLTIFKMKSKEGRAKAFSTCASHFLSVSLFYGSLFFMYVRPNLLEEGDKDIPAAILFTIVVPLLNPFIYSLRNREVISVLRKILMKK

OR2W1 [4] = target: T3, OR2W1 (Homo sapiens, UniProt Q9Y3N9); experiment: Luciferase reporter assay: suppression of the skatole response of OR2W1 expressed in HEK293 cells; format: cell-based; conditions: 4 h; test substance 100 μM mixed with 300 μM skatole, HEK293 cells expressing OR2W1; read-out: Inhibition rate 2W1
T3 construct: expressed in transfected cells; host or cells: HEK293
T3 sequence (Q9Y3N9 1-320): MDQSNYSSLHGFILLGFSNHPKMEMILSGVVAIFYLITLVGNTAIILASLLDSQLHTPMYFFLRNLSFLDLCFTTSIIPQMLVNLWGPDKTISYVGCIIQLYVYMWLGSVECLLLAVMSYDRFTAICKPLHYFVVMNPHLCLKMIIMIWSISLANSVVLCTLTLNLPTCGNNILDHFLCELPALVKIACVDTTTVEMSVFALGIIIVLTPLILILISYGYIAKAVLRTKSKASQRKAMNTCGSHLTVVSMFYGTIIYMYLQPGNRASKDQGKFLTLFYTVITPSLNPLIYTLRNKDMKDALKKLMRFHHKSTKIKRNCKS

[5] = Sensory test by panelists: suppression of hexanoic acid odor; format: in vivo; conditions: Example 6: hexanoic acid 1% and test substance 1% in propylene glycol, n=3, FIG. 5
Method: A cotton ball was put into a glass bottle (Hakuyo. Glass No. 11, capacity: 110 mL), and skatole diluted by 0.001% with propylene glycol (20 μL) and a test substance also diluted by 0.001% (20 μL) were added to the cotton ball. The glass bottle was left to stand for one night at room temperature, to thereby sufficiently evaporate the odorant molecule. The sensory test was performed by four panelists. In the case where skatole alone was added to a glass bottle, the odor intensity was rated to 5. Then, the malodor intensity in the case where skatole and a test substance were added was evaluated with a rating of 0 to 10 (by 0.5) (i.e., 20 ratings) In order to investigate specificity of malodor suppressing effect of a test substance identified in Example 4, the sensory test was also performed with hexanoic acid, a malodorous compound but structurally differs from skatole. In the experiment, hexanoic acid diluted by 1% with propylene glycol was used as a malodorous compound, and methyl dihydrojasmonate diluted by 1% with propylene glycol was used as a test substance.

OR5P3 [6] = target: T4, OR5P3 (Homo sapiens, UniProt Q8WZ94); experiment: Luciferase reporter assay: suppression of the skatole response of OR5P3 expressed in HEK293 cells; format: cell-based; conditions: test substance 100 μM mixed with 300 μM skatole, HEK293 cells expressing OR5P3
T4 construct: expressed in transfected cells; host or cells: HEK293
T4 sequence (Q8WZ94 1-311): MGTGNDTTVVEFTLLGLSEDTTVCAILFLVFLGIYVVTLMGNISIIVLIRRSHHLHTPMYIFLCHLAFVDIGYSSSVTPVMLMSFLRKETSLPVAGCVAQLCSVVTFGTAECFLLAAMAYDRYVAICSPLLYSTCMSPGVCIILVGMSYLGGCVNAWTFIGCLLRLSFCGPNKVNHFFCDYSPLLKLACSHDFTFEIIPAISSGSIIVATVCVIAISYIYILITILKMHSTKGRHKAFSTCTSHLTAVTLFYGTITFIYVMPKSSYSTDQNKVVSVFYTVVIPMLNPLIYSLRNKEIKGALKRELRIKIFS

OR5P3 [7] = target: T4, OR5P3; experiment: Luciferase reporter assay: odorant response of OR5P3 expressed in HEK293 cells; format: cell-based; conditions: 0, 3, 10, 30, 100, 300, and 1000 μM odorant, OR5P3, FIG. 2/3
Method: (§1) Each of the 369 types of human olfactory receptors was expressed in HEK293 cells. A reaction solution having a composition shown in Table 1 was prepared on a clean bench, and left to stand for 15 minutes. The solution was dispensed to each well of a 96-well plate (BD). Subsequently, HEK293 cells (100 μL, 3×10^5 cells/cm^2) were seeded in each well and cultured for 24 hours in an incubator at 37° C. and under 5% CO2 conditions.
(§2) The olfactory receptor expressed in HEK293 cells activates adenylate cyclase with the aid of Gαs present in cells, to thereby increase intracellular cAMP level. In this study, odorant response was measured by a luciferase reporter gene assay which monitored the intracellular cAMP level as the luminescence value derived from a firefly luciferase gene (fluc2P-CRE-hygro). Also, a Renilla luciferase gene fused downstream of a CMV promoter (hRluc-CMV) was also transfected to HEK293 cells as an internal standard to correct errors in gene transfer efficiency and number of cells.
(§3) The culture medium was removed from the culture plate produced in (3) above, and a solution (75 μL) containing an odorant substance (1 mM skatole) in CD293 medium (Invitrogen) was added to each well. […] Luciferase activity was measured by means of a Dual-Glo™ luciferase assay system (promega) according to an instruction manual thereof. The luminescence value derived from firefly luciferase induced by odorant stimulation was divided by the luminescence value of cells which were not stimulated with odorants. […]
(§4) In a manner similar to that employed in Example 1, each of olfactory receptor OR2W1 (SEQ ID NO: 2), OR5K1 (SEQ ID NO: 4), OR5P3 (SEQ ID NO: 6), and OR8H1 (SEQ ID NO: 8) was expressed with RTP1S mutant (SEQ ID NO: 12) in HEK293 cells. The response of each receptor to skatole (0, 3, 10, 30, 100, 300, and 1000 μM) was determined.
(§5) In a manner similar to that employed in Example 2, the response of each olfactory receptor to skatole and indole (each 0, 3, 10, 30, 100, 300, and 1000 μM) was determined.

OR5K1 [8] = target: T2, OR5K1; experiment: Luciferase reporter assay: odorant response of OR5K1 expressed in HEK293 cells; format: cell-based; conditions: 0, 3, 10, 30, 100, 300, and 1000 μM odorant, OR5K1, FIG. 2/3
Method: as §1, §2, §3, §4, §5

OR2W1 [9] = target: T3, OR2W1; experiment: Luciferase reporter assay: odorant response of OR2W1 expressed in HEK293 cells; format: cell-based; conditions: 0, 3, 10, 30, 100, 300, and 1000 μM odorant, OR2W1, FIG. 2/3
Method: as §1, §2, §3, §4, §5

OR8H1 [10] = target: T1, OR8H1; experiment: Luciferase reporter assay: odorant response of OR8H1 expressed in HEK293 cells; format: cell-based; conditions: 0, 3, 10, 30, 100, 300, and 1000 μM odorant, OR8H1, FIG. 2/3
Method: as §1, §2, §3, §4, §5

Structure (SMILES)	inhibition at 100 µM (OR8H1 [1]) [%]	suppression effect on skatole odor [2]	inhibition at 100 µM (OR5K1 [3]) [%]	inhibition at 100 µM (OR2W1 [4]) [%]	suppression effect on hexanoic acid odor [5]	Inhibition rate 5P3 (OR5P3 [6])	response of olfactory receptor at different concentration (OR5P3 [7])	response of olfactory receptor at different concentration (OR5K1 [8])	response of olfactory receptor at different concentration (OR2W1 [9])	response of olfactory receptor at different concentration (OR8H1 [10])
CCCCCC1C(=O)CCC1CC(=O)OC (stereo not shown) [methyl dihydrojasmonate, Methyl 2-penthyl-3-oxocyclopent-1-yl acetate]	50 to 80	suppressed skatole odor	< 20	50 to 80	did not suppress hexanoic acid odor	B (B >50%)				
c1ccc2[nH]ccc2c1 [indole]							exhibited a response	exhibited a response	exhibited a response	exhibited a response
